{"source": "patent US20110257204A1", "about": "“Penciclovir or Famciclovir for Treatment of Recurrent Genital Herpes with a One-Day Application” (priority 2005, published 2011)", "key": {"[1]": {"tested_on": "recurrent genital herpes lesions", "settings": "previous trial; clinic-initiated treatment, low dose 125 mg twice a day for five days; cited from earlier work"}, "[2]": {"settings": "patients receiving famciclovir in earlier studies; cited from earlier work"}, "[3]": {"tested_on": "recurrent genital herpes lesions", "assay_type": "in vivo, human", "settings": "for Time to healing of all lesions (median) / Proportion of aborted lesions: ITT; for Time to healing of all lesions (median): aborted lesions assigned time to healing of zero; for Time to healing of all lesions (median) / Proportion of aborted lesions / Time to healing of non-aborted lesions (median): famciclovir 1,000 mg b.i.d. for one day; for Hazard ratio, time to healing of non-aborted lesions: famciclovir 1,000 mg b.i.d. one day vs placebo", "protocol": "The multi-center, multi-country, randomized, double-blind parallel-group, placebo controlled study is conducted to assess the efficacy and safety of a patient-initiated one-day treatment with famciclovir ([…]) 1,000 mg, twice a day, in patients with recurrent genital herpes. Approximately 450 eligible patients are randomized in a 1:1 ratio to receive either famciclovir (1,000 mg, twice a day) or matching placebo for one day. Patients are instructed to obtain a viral sample and initiate treatment within six hours of prodrome and/or recurrence of genital herpes lesions. All patients are required to return for clinic visits for observation of lesions on Days 2 and 3. Patients with lesions will continue with clinic visits on Days 4 and 5, then every other day until it is deemed that lesion healing has occurred however not to exceed Day 14. The following Table 1 represents the study design. Each patient receives either Famciclovir 2,000 mg [1,000 mg (4×250 mg capsules)] orally or placebo (4×250 mg matching placebo capsules) orally twice in one day. Study medication is to be administered twice in one day (during normal waking hours). One-day equals to 24 hours, if the patent starts a first dose in the PM the second should be taken upon waking in the AM. The first dose is taken within six hours of prodrome and/or genital herpes lesion occurrence. Within 6 hours of recurrence of either genital herpes symptom onset and/or lesion and prior to initiating therapy, patients obtain a viral sample for PCR at Visit 1. The sample is brought to the clinic at Visit 2. Patients maintain a diary to assess and record appearance/stage and location of lesion. From Visit 2 onwards, physicals are performed by clinician who examines genitalia for herpes lesions. Patients with lesions will continue with clinic visit on Days 4 (Visit 5) and 5 (Visit 6) then every other day until clinician investigator deems that the lesion healing has occurred however not to exceed Day 14. Should patients only experience symptoms, without onset of herpes lesion, these patients will return for clinic visits until resolution of symptoms. The primary efficacy variable refers to the investigator-assessed time to healing (re-epithelization, erythema may be present) of all non-aborted genital herpes lesions from the time of the first dose of study medication. Non-aborted lesions refer to all lesions requiring re-epithelization: lesions which undergo vesicular, ulcer/soft crust, hard crust formation. […] Primary efficacy variable is analyzed using the proportional hazards model, with treatment, gender and study center as explanatory variables, for patients over the modified ITT population. The Efron approximate likelihood method is used for resolution of ties. The 95% confidence intervals for the hazard ratio and median times to healing is calculated. The time to healing based on investigator-assessment (with aborted lesions assigned a time of zero) is analyzed on the PCR-positive and the ITT populations. A proportional hazards model is used in analysis, with treatment, gender, and study center as explanatory variables. The Efron approximate likelihood method is used for resolution of ties. A 95% confidence interval for the hazard ratio and median times to healing is calculated. Covariates and interactions listed for the primary efficacy variable are assessed separately by adding their terms into the proportional hazards model. The time to resolution of each symptom, as well as the time to resolution of all symptoms, will be analyzed using a proportional hazards model with treatment, gender, and study center as explanatory variables, over the ITT population. The proportion of patients reporting each symptom is presented descriptively, and compared between treatments using the Chochran-Mantel-Haenszel 9CHM) test, stratified by gender and study center, over the ITT population. […]"}, "[4]": {"settings": "regardless of the dose given; cited from earlier work"}}, "note": "Where two headings read alike, the source gives them in different places."}
{"smiles": "CC(=O)OCC(CCn1cnc2cnc(N)nc21)COC(C)=O", "note": "[famciclovir, 9-(4-acetoxy-3-acetoxymethylbut-1-yl)-2-aminopurine]", "values": [{"measurement": "Hazard ratio between famciclovir and placebo for time to healing", "setting": "[1]", "result": 1.48}, {"measurement": "Most commonly reported adverse events", "setting": "[2]", "result": "headache and nausea"}, {"measurement": "Time to healing of all lesions (median)", "setting": "[3]", "result": 3.5, "unit": "days"}, {"measurement": "Time to healing of all lesions (median)", "setting": "[3]; listed as Famciclovir", "result": 4.3, "unit": "days"}, {"measurement": "Proportion of aborted lesions", "setting": "[3]", "result": 23.3, "unit": "%"}, {"measurement": "Proportion of aborted lesions", "setting": "[3]; listed as Famciclovir", "result": 23.3, "unit": "%"}, {"measurement": "Time to healing of non-aborted lesions (median)", "setting": "[3]; Modified ITT, oral, patient-initiated within 6 hours", "result": 4.3, "unit": "days"}, {"measurement": "Hazard ratio, time to healing of non-aborted lesions", "setting": "[3]; Modified ITT, proportional hazards model", "result": 1.64}, {"measurement": "Time to healing of non-aborted lesions (median)", "setting": "[3]; Per Protocol", "result": 4.3, "unit": "days"}, {"measurement": "Hazard ratio, time to healing of non-aborted lesions", "setting": "[3]; Per Protocol", "result": 1.72}, {"measurement": "Reduction of median time to healing of recurrent genital herpes lesions compared to placebo", "setting": "[3]; famciclovir 1,000 mg twice a day, one day, immunocompetent patients, non-aborted lesions", "result": "two"}, {"measurement": "Bioavailability", "setting": "[4]", "result": 77, "unit": "%"}]}
